# Test results reported in patent US5229419A, “Chemotherapeutically active acetogenins” (Purdue Research Foundation, priority 1992, dated 1993).
# Key:
# [1] = test system: H125; experiment: NCI in vitro cytotoxicity, non-small cell lung cancer; type: cell-based; settings: Homo sapiens
# [2] = test system: protein tyrosine kinase; experiment: protein tyrosine kinase test; type: biochemical
# [3] = test system: A2780; experiment: NCI in vitro cytotoxicity, ovarian cancer; type: cell-based; settings: Homo sapiens
# [4] = test system: HCC-2998; experiment: NCI in vitro cytotoxicity, colon cancer; type: cell-based; settings: Homo sapiens
# [5] = test system: H146; experiment: NCI in vitro cytotoxicity, small cell lung cancer; type: cell-based; settings: Homo sapiens
# [6] = test system: DLD-1; experiment: NCI in vitro cytotoxicity, colon cancer; type: cell-based; settings: Homo sapiens
# [7] = test system: A498; experiment: NCI in vitro cytotoxicity, renal cancer; type: cell-based; settings: Homo sapiens
# [8] = test system: SNB-19; experiment: NCI in vitro cytotoxicity, CNS cancer; type: cell-based; settings: Homo sapiens
# [9] = test system: CAKI-1; experiment: NCI in vitro cytotoxicity, renal cancer; type: cell-based; settings: Homo sapiens
# [10] = test system: SK-MES-1; experiment: NCI in vitro cytotoxicity, non-small cell lung cancer; type: cell-based; settings: Homo sapiens
# [11] = test system: H82; experiment: NCI in vitro cytotoxicity, small cell lung cancer; type: cell-based; settings: Homo sapiens
# [12] = test system: P388; experiment: NCI in vitro cytotoxicity, leukemia; type: cell-based; settings: Mus musculus
# [13] = test system: human tumor cell line panel; experiment: NCI human tumor cell line panel, overall; type: cell-based; settings: Table 6 summary
# [14] = test system: SNB-75; experiment: NCI in vitro cytotoxicity, CNS cancer; type: cell-based; settings: Homo sapiens
# [15] = test system: SW620; experiment: NCI in vitro cytotoxicity, colon cancer; type: cell-based; settings: Homo sapiens, SW-620
# [16] = test system: OVCAR-3; experiment: NCI in vitro cytotoxicity, ovarian cancer; type: cell-based; settings: Homo sapiens
# [17] = test system: H522; experiment: NCI in vitro cytotoxicity, non-small cell lung cancer; type: cell-based; settings: Homo sapiens
# [18] = test system: A704; experiment: NCI in vitro cytotoxicity, renal cancer; type: cell-based; settings: Homo sapiens
# [19] = test system: OVCAR-5; experiment: NCI in vitro cytotoxicity, ovarian cancer; type: cell-based; settings: Homo sapiens
# [20] = test system: protein kinase C; experiment: protein kinase C displacement test; type: binding; settings: 10 μM
# [21] = test system: SNB-44; experiment: NCI in vitro cytotoxicity, CNS cancer; type: cell-based; settings: Homo sapiens, SNB44
# [22] = test system: RPMI-7951; experiment: NCI in vitro cytotoxicity, melanoma; type: cell-based; settings: Homo sapiens
# [23] = test system: SK-MEL2; experiment: NCI in vitro cytotoxicity, melanoma; type: cell-based; settings: Homo sapiens, SK-MEL-2
# [24] = test system: two-spotted spider mite (2SSM) Tetranychus urticae; type: in vivo; settings: at 10 ppm
# Experimental: (§1) Pesticidal bioassays were conducted at Eli Lilly Laboratories (Greenfield, Ind.) following standard procedures with eight indicator organisms: mosquito larvae (ML) Aedes aegypti (in the media), blowfly larvae (BFL) (1% in the diet), corn root worm (CRW) Diabrotics undecimcuntata howardii (in soil), two-spotted spider mite (2SSM) Tetranychus urticae (on foliage), southern army worm (SAW) Spodoptera eridania (on foliage), melon aphid (MA) (5000 ppm on foliage), cotton aphid (CA) Aphis gossypii, (on foliage) and Haemonchus contortus (HC) (a nematode, 0.1% in the media).
# (§2) Pesticidal bioassays on initial fractions were conducted at Eli Lilly Laboratories (Greenfield, Ind.) following standard procedures with seven indicator organisms: mosquito larvae (ML), blow fly larvae (BFL), corn root worm (CRW), two-spotted spider mite (2SSM), southern army worm (SAW), melon aphid (MA), and Haemonchus contortus (HC).
# [25] = test system: corn root worm (CRW) Diabrotics undecimcuntata howardii; type: in vivo; settings: at 24 ppm
# Experimental: as §1, §2
# [26] = test system: OVCAR-8; experiment: NCI in vitro cytotoxicity, ovarian cancer; type: cell-based; settings: Homo sapiens
# [27] = test system: brine shrimp (Artemia salina Leach); experiment: whole plant or invertebrate; type: in vivo; settings: 24 hrs, read-out: BST LC50
# Experimental: The extracts, fractions, and isolated compounds were routinely evaluated for lethality to brine shrimp larvae (BST). The LC50 of brine shrimp (Artemia salina Leach) was determined by substantially the same method described by Meyer et al. [Planta Med., 45: 31-34 (1982)]. The test sample was dissolved in solvent and added to 2-dram vials in an amount to provide 1000, 100, 10, 1, etc. p.p.m. of material in the final brine preparation, assuming complete miscibility in the brine. The vials were dried in vacuo, and artificial sea water, prepared from a commercial salt mixture, was added. Ten brine shrimp larva (nauplii), 48-72 hrs. old, were introduced to the vial, and the volume was made up to 5 ml. with the sea water. After 24 hrs., the percent mortality was computed. Subsequently, LC50 values and 95% confidence limits were calculated by a Finney probit analysis to permit comparison of potencies of extracts and fractions.
# Anticancer activity is a potential use even for the crude extract. The bioassay results for the lethality of brine shrimp (BST), the inhibition of crown gall tumors on potato discs (PD), the reversal in morphology of db-cAMP induced AC glioma cells from that of mature, differentiated astrocytes to that of immature AC glioma cells (mouse brain cells) (9ASK), the dose that inhibits cell growth to one-half that of untreated poorly differentiated human epidermic carcinoma (9KB), the dose that inhibits cell growth to one-half that of a methylcholanthrene-induced lymphoid neoplasm in a DBA/2 mouse (9PS), and the percent displacement in a protein kinase C test for initial extract fractions are shown in Table 1. Obviously, the bioactivity is concentrated in F005.
# [28] = test system: SK-MEL5; experiment: NCI in vitro cytotoxicity, melanoma; type: cell-based; settings: Homo sapiens, SK-MEL-5
structure (smiles),measurement,setting,value
CCCCCCCCCCC(O)C1CCC(C2CCC(C(O)CCCCCCCCCCC(O)CC3=CC(C)OC3=O)O2)O1 (centres unmarked) [Bullatacin],IC50,[1],2.4 µg/mL
same,IC90,[1],> 9.26 µg/mL
same,result in the protein tyrosine kinase test,[2],negative result
same,IC50,[3],0.0377 ng/mL
same,IC90,[3],0.00065 µg/mL
same,IC50,[4],4.05 µg/mL
same,IC90,[5],> 9.26 µg/mL
same,IC50,[6],2.76 µg/mL
same,IC90,[6],8.62 µg/mL
same,IC50,[7],0.0424 ng/mL
same,IC90,[7],0.00371 µg/mL
same,IC50,[8],> 0.926 µg/mL
same,IC90,[8],> 0.926 µg/mL
same,IC50,[9],0.00394 µg/mL
same,IC90,[9],> 0.0924 µg/mL
same,IC50,[10],> 0.0924 µg/mL
same,IC90,[10],> 0.0924 µg/mL
same,IC50,[11],1.99 µg/mL
same,IC90,[11],7.14 µg/mL
same,IC50,[12],> 0.0924 µg/mL
same,IC90,[12],> 0.0924 µg/mL
same,tumor types most sensitive in panel,[13],"best active for certain CNS cancers, non-small cell lung cancers, leukemias, and ovarian cancers"
same,IC50,[14],3.35 µg/mL
same,IC90,[14],> 9.26 µg/mL
same,IC50,[15],0.00564 µg/mL
same,IC90,[15],5.66 µg/mL
same,IC50,[16],> 0.0924 µg/mL
same,IC90,[16],> 0.0924 µg/mL
same,IC50,[17],2.46 µg/mL
same,IC90,[17],> 9.24 µg/mL
same,IC50,[18],1.36 µg/mL
same,IC90,[18],8 µg/mL
same,IC50,[19],8.8 µg/mL
same,IC90,[19],> 9.26 µg/mL
same,displacement in a protein kinase C test,[20],7%
same,IC50,[21],4.42 µg/mL
same,IC90,[21],> 9.26 µg/mL
same,IC50,[22],2.73 µg/mL
same,IC90,[22],7.71 µg/mL
same,IC90,[23],8.64 µg/mL
same,toxicity to two-spotted spider mites,[24],significantly toxic
same,toxicity to southern corn rootworm,[25],significantly toxic
same,IC50,[26],2.57 µg/mL
same,IC90,[26],7.65 µg/mL
same,LC50,[27],0.00159 µg/mL
same,IC50,[28],> 0.000926 µg/mL
same,IC90,[28],5.22 µg/mL
